Experimental data from publication PMC9821843, “Powerful Potential of Polyfluoroalkyl-Containing 4-Arylhydrazinylidenepyrazol-3-ones for Pharmaceuticals” (Molecules, 2022).
Converted amounts (≈) assume the structure as drawn. Read-outs that look alike come from different tables or passages of the source.

Assays:
[1] = Oxygen radical absorbance capacity (ORAC-FL) assay; settings: n.a. = inactive; i.t.s. = interferes with test system
Text: We evaluated the primary antioxidant activity of synthesized 4-AHPs 5–9 in comparison with their non-fluorinated analogues 9a,b using three standard tests: ABTS, FRAP (ferric reducing antioxidant power) and ORAC (oxygen radical absorbance capacity) assays. The ABTS assay evaluates the binding of a model ABTS radical cation (ABTS^•+), which is realized by the mechanism of single electron transfer (SET) and/or hydrogen atom transfer (HAT). The FRAP assay measures the ability of compounds to reduce the ferric 2,4,6-tripyridyl-s-triazine complex [Fe(TPTZ)2]^3+ to [Fe(TPTZ)2]^2+, which occurs exclusively by the SET mechanism. The ORAC-FL assay measures the oxidative degradation of the fluorescent molecule (FL – fluorescein) after being mixed with a free peroxyl radical generator such as 2,2′-azobis-(2-methylpropionamidine) dihydrochloride (AAPH) in the presence of antioxidant (tested compound). The ORAC-FL test describes the antioxidants’ ability to yield the hydrogen atom and, consequently, it is a HAT-based assay. Trolox was used in all tests as a reference antioxidant: the antioxidant activity of the test compounds was referred to the activity of Trolox. The well-known antioxidant Edaravone was also used for comparison.
The ORAC assay was performed according to the known method, with minor variations and described by us recently.

[2] = system: Sprague-Dawley (SD) rats; experiment: Hot plate test (analgesic activity); type: in vivo; settings: ip; for change in vivo at 15 mg/kg: Rattus norvegicus
Protocol: The hot plate test was conducted according to established guidelines on Sprague-Dawley (SD) rats (3 male and 3 female rodents per group). The compounds were intraperitoneally administered in the form of suspensions in 1% starch mucilage. Negative control group animals received vehicle only (1% starch mucilage). Diclofenac sodium (Hemofarm, Vršac, Serbia, 10 mg/kg in 1% starch mucilage solution) or metamizole sodium (PAO Biosynthesis, Sun Pharma, Penza, Russia, 15 mg/kg in 1% starch mucilage solution) were used as reference drugs. One and two hours after the injection, rats were placed on an electrically heated to 50 °C plate (Hot plate 60,200 series, TSE-systems, Bad Homburg, Germany) in a Plexiglas cylindrical restrainer (19 cm diameter × 30 cm). The nociceptive response time was measured by observing the appearance of rats’ movements (e.g., jumping, hind paw licking or shaking). Maximal cutoff time was set as 30 s regardless of the response in order to preclude skin damage.
Differences between the values of the latency period for the treated (experimental) and control groups of animals were considered significant at p ≤ 0.05.

[3] = Acute toxicity evaluation in mice (ip); settings: CD-1, mouse, in vivo, 300 mg/kg
Protocol: The toxicity evaluation was performed on CD-1 mice. […] The tested compounds in 1% starch mucilage were injected intraperitoneally into three mice. Then, animals were observed during 14 days, the number of deaths was counted and % of viability calculated.

[4] = system: Microsporum canis RCPF F 1643/1585; experiment: Antifungal susceptibility testing, M. canis; settings: Microsporum canis, RCPFF1643/1585, read-out: MIC for fungi strains inhibition, M. canis
Text: (§1) The solvent was DMSO. […] In each test, a growth control and a sterility control were used.

[5] = target: T1, equine serum butyrylcholinesterase (BChE, EC 3.1.1.8) (Equus caballus, UniProt P81908); experiment: Inhibition of equine serum butyrylcholinesterase (Ellman assay); type: biochemical; settings: read-out: Inhibition % at 20 µM, Equine BChE
T1 construct: equine serum butyrylcholinesterase (BChE, EC 3.1.1.8); purchased Sigma-Aldrich (Saint Louis, MO, USA); host or cells: equine serum
Text: The following enzymes were purchased from Sigma-Aldrich (Saint Louis, MO, USA): porcine liver carboxylesterase (CES, EC 3.1.1.1), human erythrocyte acetylcholinesterase (AChE, EC 3.1.1.7) and equine serum butyrylcholinesterase (BChE, EC 3.1.1.8). Substrates for CES, AChE and BChE were 4-nitrophenyl acetate (4-NPA), acetylthiocholine iodide (ATCh) and butyrylthiocholine iodide (BTCh), respectively, and the colorimetric reagent for the AChE and BChE assays was 5,5’-dithio-bis-(2-nitrobenzoic acid) (DTNB) (Sigma-Aldrich). All the kinetic experiments were performed under standard conditions, according to the protocol of IPAC RAS for a reversible inhibitors study.
Final concentrations of reactants were 0.33 mM DTNB, 0.02 unit/mL of AChE or BChE and 1 mM of substrate (ATCh or BTCh, respectively). Reagent blanks consisted of reaction mixtures without enzyme to assess non-enzymatic hydrolysis of substrates.
Test compounds were dissolved in DMSO. Reaction mixtures contained a final DMSO concentration of 2% (v/v). […] Substrate was then added and residual enzyme activity relative to an inhibitor-free control was measured using a Bio-Rad Benchmark Plus microplate reader (Marnes-la-Coquette, France).
Measurements were performed in a Bio-Rad Benchmark Plus microplate reader. Each experiment was performed in triplicate. Plots, linear regressions and values of IC50, were determined using Origin 6.1 for Windows, OriginLab (Northampton, MA, USA).

[6] = system: Neisseria gonorrhoeae ATCC 49226/NCTC 12700; experiment: Antibacterial activity against Neisseria gonorrhoeae; type: cell-based; settings: read-out: MIC against Neisseria gonorrhoeae
Protocol: Antibacterial activity testing was done on the growth medium Difco GC medium base (Becton Dickinson, Franklin Lakes, NJ, USA) supplemented with 1% IsoVitaleX. Dilutions of chemical compounds were carried out in the range of 250–0.12 μg/mL in 24 well sterile plates (Sarstedt, Germany). Daily cultures of control bacterial strains were identified on a VITEK MS analyzer (BioMérieux, Marcy-l’Étoile, France) by MALDI-TOF mass spectrometry. The inoculation dose of N. gonorrhoeae inoculum was 10^5 CFU/mL.

[7] = system: Epidermophyton floccosum RCPF F 1659/17; experiment: Antifungal susceptibility testing, E. floccosum; settings: Epidermophyton floccosum, RCPFF1659/17, read-out: MIC for fungi strains inhibition, E. floccosum
Text: as §1

[8] = system: Trichophyton rubrum RCPF F 1408; experiment: Antifungal susceptibility testing, T. rubrum; settings: Trichophyton rubrum, RCPFF1408, read-out: MIC for fungi strains inhibition, T. rubrum
Text: as §1

[9] = system: Candida albicans RCPF Y 401/NCTC 885/653; experiment: Antifungal susceptibility testing, C. albicans; settings: NCTC885, read-out: MIC for fungi strains inhibition, C. albicans
Text: as §1

[10] = ABTS radical cation scavenging activity assay; parameters: key to ABTS•+-scavenging activity, TEAC (trolox equivalent antioxidant capacity): TEAC = ratio of compound slope to Trolox slope vs ABTS absorbance; settings: mean ± SEM; for ABTS•+-scavenging activity, TEAC (trolox equivalent antioxidant capacity): n.a. = inactive
Protocol: Radical scavenging activity of the compounds was evaluated by the ABTS radical cation (ABTS^•+) scavenging assay by the ability of the compounds to decolorize the ABTS^•+ solution [112] with some modifications. Trolox was used as a reference standard. Edaravone was used as the comparison compound. All tested compounds and standards were dissolved in DMSO. ABTS (2,2′-azinobis-(3-ethylbenzothiazoline-6-sulfonic acid)) was purchased from Tokyo Chemical Industry Co. Ltd. (Tokyo, Japan). Potassium persulfate (di-potassium peroxdisulfate), Trolox® (6-hydroxy-2,5,7,8-tetramethychroman-2-carboxylic acid), ascorbic acid, DMSO and HPLC-grade ethanol were obtained from Sigma-Aldrich Chemical Co. Aqueous solutions were prepared using deionized water.
The solution of ABTS^•+ was produced by mixing 7 mM ABTS aqueous solution with 2.45 mM potassium persulfate aqueous solution in equal quantities and allowing them to react for 12–16 h at room temperature in the dark. Radical scavenging capacity of the compounds was analyzed by mixing 10 μL of compound with 240 μL of ABTS^•+ working solution in ethanol (100 μM final concentration), and after 1 h of incubation at 30 °C the decrease in absorbance was measured spectrophotometrically at 734 nm using a Bio-Rad xMark microplate UV/VIS spectrophotometer (Bio-Rad, Hercules, CA, USA). The compounds were tested in the concentration range of 5 × 10^–7–4 × 10^–4 M. Ethanol blanks were run in each assay. Values were obtained from five replicates of each sample and three independent experiments.
Antioxidant activity was calculated as Trolox equivalent antioxidant capacity (TEAC values), consisting of the ratio between the slopes obtained from the linear correlation for concentrations of the tested compounds and Trolox with absorbance of ABTS radical. For the test compounds, which reduce ABTS^•+ absorbance by more than 60% at 100 µM, we also determined IC50 values as 50% reduction of the ABTS radical. The calculations were carried out using Origin 6.1 for Windows. Results were presented as mean ± SEM, calculated using GraphPad Prism version 6.05 for Windows, GraphPad Software.

[11] = hot plate test, rats, dose 15 mg/kg, 1 h, n.a. = inactive (p > 0.05), read-out: Latent Period Prolongation, % 1 h
[12] = hot plate test, rats, dose 15 mg/kg, 2 h, n.a. = inactive (p > 0.05), read-out: Latent Period Prolongation, % 2 h

T1 sequence (P81908 whole entry): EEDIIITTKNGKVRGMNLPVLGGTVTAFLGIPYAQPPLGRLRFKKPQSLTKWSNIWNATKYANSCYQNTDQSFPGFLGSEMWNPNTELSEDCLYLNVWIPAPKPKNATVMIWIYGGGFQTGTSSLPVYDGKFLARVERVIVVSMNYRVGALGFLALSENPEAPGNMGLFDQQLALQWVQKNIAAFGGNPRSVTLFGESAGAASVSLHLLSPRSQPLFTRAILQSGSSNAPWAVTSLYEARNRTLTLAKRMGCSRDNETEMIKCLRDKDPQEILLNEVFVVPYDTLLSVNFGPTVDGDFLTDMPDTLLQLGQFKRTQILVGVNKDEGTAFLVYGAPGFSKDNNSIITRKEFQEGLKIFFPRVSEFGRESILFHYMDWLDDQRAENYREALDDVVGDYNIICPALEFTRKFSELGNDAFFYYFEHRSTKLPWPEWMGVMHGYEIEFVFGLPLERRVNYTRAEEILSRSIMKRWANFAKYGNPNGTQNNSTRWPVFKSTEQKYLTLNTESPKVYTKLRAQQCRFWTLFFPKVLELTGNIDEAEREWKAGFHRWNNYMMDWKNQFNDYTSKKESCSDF

SMILES	ORAC-FL (TE, antioxidant activity in Trolox equivalents) [1]	change in vivo at 15 mg/kg [2, 11] [%]	change in vivo at 15 mg/kg [2, 12] [%]	survival at 14 days [3] [%]	MIC [4] [µg/mL]	inhibition at 20 µM [5] [%]	MIC [6] [µg/mL]	MIC [7] [µg/mL]	MIC [8] [µg/mL]	MIC [9] [µg/mL]	ABTS•+-scavenging activity, TEAC (trolox equivalent antioxidant capacity) [10]	analgesic activity in the hot plate test ([2]; SD rats, dose 15 mg/kg, 1 and 2 h)	change in vivo at 15 mg/kg ([2]; 1 h, read-out: Latent Period Prolongation, % 1 h) [%]	change in vivo at 15 mg/kg ([2]; 2 h, read-out: Latent Period Prolongation, % 2 h) [%]	IC50 [10] [µM]
O=C1/C(=N\Nc2ccccc2)C(C(F)(F)F)=NN1c1ccccc1 [5e, (4Z)-2-Phenyl-4-(2-phenylhydrazinylidene)-5-(trifluoromethyl)-2,4-dihydro-3H-pyrazol-3-one]	i.t.s.	100	129	100	200 (≈ 602 µM)	5.1 ± 0.9	> 250	200 (≈ 602 µM)	200 (≈ 602 µM)	> 200	0.02				
O=C1/C(=N\Nc2c(Cl)cccc2Cl)C(C(F)(F)F)=NN1c1ccccc1 [5j, (4Z)-4-[2-(2,6-Dichlorophenyl)hydrazinylidene]-2-phenyl-5-(trifluoromethyl)-2,4-dihydro-3H-pyrazol-3-one]				100	> 200	7.1 ± 1.2	31.2 (≈ 77.8 µM)	> 200	> 200	> 200		inactive			
NS(=O)(=O)c1ccc(N/N=C2\C(=O)N(c3ccccc3)N=C2C(F)(F)F)cc1 [5n, (4Z)-4-(2-[4-(Aminosulfonyl)phenyl]hydrazinylidene)-2-phenyl-5-(trifluoromethyl)-2,4-dihydro-3H-pyrazol-3-one]	i.t.s.		84	100		3.5 ± 0.6									
Cc1ccc(N/N=C2\C(=O)N(c3ccc(C)cc3)N=C2C(F)(F)F)cc1 [5r, (4Z)-2-(4-Methylphenyl)-4-[2-(4-methylphenyl)hydrazinylidene]-5-(trifluoromethyl)-2,4-dihydro-3H-pyrazol-3-one]		63.2	74.2	100	> 200	4 ± 1	> 250	> 200	> 200	> 200	0.13 ± 0.007				
O=C1/C(=N\Nc2cccc(Cl)c2)C(C(F)(F)C(F)(F)F)=NN1c1ccccc1 [6d, (4Z)-4-[2-(3-Chlorophenyl)hydrazinylidene]-5-(pentafluoroethyl)-2-phenyl-2,4-dihydro-3H-pyrazol-3-one]		93	63	100	> 200	7.8 ± 1.2	15.6 (≈ 37.4 µM)	200 (≈ 480 µM)	> 200	> 200					
Cc1ccc(N/N=C2\C(=O)NN=C2C(F)(F)C(F)(F)C(F)(F)C(F)(F)F)cc1 [8a, (4Z)-5-(Nonafluorobutyl)-4-[2-(4-methylphenyl)hydrazinylidene]-2,4-dihydro-3H-pyrazol-3-one]	2.33 ± 0.15			100	> 200		250 (≈ 595 µM)	> 200	> 200	> 200	0.43 ± 0.03		62.9	40.4	48.3 ± 2.2
CN[C@@H]1[C@H](O)[C@H](NC)[C@H]2O[C@@]3(O)C(=O)C[C@@H](C)O[C@H]3O[C@@H]2[C@H]1O [Spectinomycin, reference compound]							15.6 (≈ 46.9 µM)								
Cc1c(N(C)CS(=O)(=O)O)c(=O)n(-c2ccccc2)n1C [metamizole, reference compound]		34.2 ± 11.3	64.6 ± 22.5	100											
